{
  "source": "patent US7612107B2",
  "about": "“Treatment and inhibition of disease conditions using flexible heteroarotinoids” (The Board of Regents of the University of Oklahoma, priority 2005, dated 2009)",
  "key": {"OVCAR-3 xenograft tumors": {"system": "OVCAR-3 xenograft tumors", "assay": "OVCAR-3 xenograft tumor growth model", "assay_type": "in vivo, mouse", "settings": "10 mg/kg/day by gavage, 5 days per week, 4 weeks", "method": "Groups of 5 mice bearing OVCAR-3 xenografted tumors were gavaged daily with the indicated drugs in sesame oil (▪ closed square) or with sesame oil alone (∘ open circle). Tumor volumes were measured in 3 dimensions with calipers weekly. Each data point represents the average and standard error of the tumor volumes on the indicated treatment day relative to the tumor volume on day zero. Nu/nu mice were injected subcutaneously with one million OVCAR-3 cells and arbitrarily divided into five groups of six mice each. After three weeks of tumor growth, the animals were gavaged with sesame oil, 10 mg/kg/day 4-HPR, or the indicated Het five times per week for four weeks and the tumors were measured once per week. The tumor sizes were averaged and divided by the average size for each group on the day that treatment was initiated (day 0).\nThe OVCAR-3 cultures were maintained in RPMI media supplemented with 10% fetal bovine serum. All animal experimentation described in this manuscript was conducted in accord with accepted standards of humane animal care. Twenty-five female NU/NU CD-1 female mice (Charles Rivers Laboratories) were housed in a laminar flow room under sterile conditions at 83-85° F. The mice were quarantined for one week prior to the beginning of the study and were allowed access to autoclaved food (Purina 5001 mouse/rat sterilizable diet, St. Louis, Mo.) and water ad libitum. OVCAR-3 cells in log phase growth were harvested by trypsinization, resuspended in RPMI culture medium, and centrifuged at 3,000 rpm for 10 min. The pellets were resuspended in RPMI culture medium at a concentration of 7×10^6 cells/ml before implantation into mice. Animals were injected with 3.5×10^6 cells into the right scapular region with a 24-gauge needle/1 cc tuberculin syringe. Twenty-four hours after tumor implantation, animals were randomized into 5 groups of 5 animals each.\nThe Hets SHet50, SHetA2 and SHetA4 were synthesized and their receptor specificity determined as previously described (17,19). The 4-HPR compound was a gift from R.W. Johnson Pharmaceutical Research Institute, Raritan, N.J. All retinoids were dissolved in super refined sesame oil (Croda, Inc., Parsippany, N.J.) and stored at −80° C. Since the retinoids are light sensitive, all manipulations involving retinoids were performed under subdued lighting. […] Tumors were measured with calipers weekly, and tumor volumes were calculated using the formula: volume=length×width×height. Tumor growth was determined by the dividing the volume of the tumor at each weekly measurement by the volume on the first day of treatment. Animal weights and clinical signs of overall health status and cutaneous toxicities were recorded weekly."}, "dorsal skin": {"system": "dorsal skin", "assay": "Topical irritancy in Skh hairless mice", "assay_type": "in vivo", "settings": "topical, dorsal skin, 4 days, 2-log dose range", "method": "Female Skh hairless mice, 6-8 weeks old, were treated topically on the dorsal skin for 4 days over a 2-log concentration dose range with various compounds. Retinoic acid receptor-Hets were evaluated in A, while retinoic acid receptor-independent Flex-Hets were evaluated in B. Daily flaking and abrasion scores were combined to calculate a single cutaneous toxicity score for each mouse. Each treatment group consisted of 4 mice, and group averages were used to plot cutaneous toxicity against doses of the compounds.\nTopical irritancy was evaluated according to published procedures (29). Briefly, female Skh hairless mice, 6-8 weeks old, were treated topically on the dorsal skin for 4 days over a 2-log concentration dose range with various compounds. Daily flaking and abrasion scores were combined to calculate a single cutaneous toxicity score for each mouse. Each treatment group consists of 4 mice, and group averages are used to plot cutaneous toxicity against dose of the retinoid compound."}, "Raldh2-/- embryos": {"system": "Raldh2-/- embryos", "settings": "for No. of −/− rescued / No. of −/− unrescued: E10.25; for Teratogenesis: mouse, in vivo, po", "method": "Briefly, retinoids were dissolved in corn oil and administered orally to timed-pregnant Raldh2_/_mice at 12-h intervals on E7.25, E7.75, and E8.25. Dosages varied from 0.025 to 25 mg/kg. At E10.25, embryos were analyzed morphologically to determine whether Raldh2_/_embryos were rescued or whether wild-type embryos had suffered teratogenesis. Detection of embryonic RA was performed in situ in embryos carrying the RARE-lacZ RA-reporter gene by staining for beta-galactosidase activity for 10 h (45).\nA mouse model that lacks retinaldehyde dehydrogenase (Raldh2) due to null mutations was used to test the ability of Flex-Hets to substitute for retinoic acid (RA) and induce birth defects. […] We examined the relative ability of all-trans-RA, 9-cis-RA, receptor-specific synthetic retinoids and retinoic acid receptor independent Flex-Hets to rescue the Raldh2_/_embryonic lethal phenotype."}, "[1]": {"system": "EAhy.926 endothelial cells", "assay": "Growth/viability of endothelial cells versus ovarian cancer cell lines", "assay_type": "cell-based", "settings": "24 hours", "method": "The graph on the left provides quantification of the endothelial branches for each treatment dose.\nThe increased thickness of the vessels at 1 μM and the increasing proportions of solitary clumps of cells at 5 and 10 μM indicate that SHetA2 is inhibiting endothelial cell migration. To determine if this anti-angiogenic activity was due to growth inhibition or cytotoxicity. The viability of the endothelial cells treated with SHetA2 for 24 hours was evaluated. […] This confirms the therapeutic ratio observed in previous studies."}, "B16 mouse melanoma": {"system": "B16 mouse melanoma", "assay": "B16 melanoma syngeneic tumor model", "assay_type": "in vivo", "method": "FIG. 12. Various Xenograft tumors stained with CD34 antibodies (brown) to identify endothelium. The B16 mouse melanoma cell line was established as a syngeneic tumor in an immunocompetent mouse model and the human Caki renal cancer and A2780 ovarian xenograft tumors in immunocompromised mice. The treated mice were gavaged with 60 mg/kg/day SHetA2 and the untreated were gavaged with solvent only. The tumors were excised and sections were stained with the anti-CD34 antibody to detect endothelial cells (brown stain).\nSurvival was the primary endpoint of those studies. […] Tumor growth was the primary endpoint of the renal cancer study."}, "[2]": {"system": "Thymidine Phosphorylase (TP)", "assay": "Real time rt-PCR and Western blot validation, thymidine phosphorylase", "assay_type": "cell-based", "settings": "OVCAR-3 1 μM (rt-PCR); A2780 10 μM (Western)", "method": "FIG. 13. Real Time rt-PCR validation of SHetA2 inhibition of TP and TSP-1 mRNA Expression. OVCAR-3 cultures were treated with 1 μM SHetA2 for the indicated period of time prior to harvesting the cells and isolating RNA. cDNA was prepared and used in real time rt-PCR reactions. Real time rt-PCR was performed on cDNA from cultures various treatment times.\nFIG. 14. Western blot validation of SHetA2 inhibition of TP and TSP4 protein expression. A2780 ovarian cancer cells were treated with 10 μM SHetA2 for the indicated amounts of time. Equal amounts of whole cell protein extracts were evaluated by Western blot."}},
  "note": "Read-outs that look alike come from different tables or passages of the source.",
  "data": [
    {"smiles": "CC1(C)CC(C)(C)c2cc(NC(=S)Nc3ccc([N+](=O)[O-])cc3)ccc2S1", "note": "[SHetA2]", "values": [
      {"measurement": "Growth of xenograft tumors versus sesame oil control", "setting": "OVCAR-3 xenograft tumors", "result": "significantly inhibited the growth"},
      {"measurement": "Topical irritancy (cutaneous toxicity score)", "setting": "dorsal skin", "result": "did not induce topical irritancy"},
      {"measurement": "Rescue of Raldh2−/− embryos (in words)", "setting": "Raldh2-/- embryos; 2.5 mg/kg", "result": "no rescue"},
      {"measurement": "Rescue of Raldh2−/− embryos (in words)", "setting": "Raldh2-/- embryos; 10 or 25 mg/kg", "result": "no rescue"},
      {"measurement": "No. of −/− rescued", "setting": "Raldh2-/- embryos; Dose 2.5 mg/kg oral", "result": 0},
      {"measurement": "No. of −/− unrescued", "setting": "Raldh2-/- embryos; Dose 2.5 mg/kg oral", "result": 1},
      {"measurement": "No. of −/− rescued", "setting": "Raldh2-/- embryos; Dose 10 mg/kg oral", "result": 0},
      {"measurement": "No. of −/− unrescued", "setting": "Raldh2-/- embryos; Dose 10 mg/kg oral", "result": 5},
      {"measurement": "No. of −/− rescued", "setting": "Raldh2-/- embryos; Dose 25 mg/kg oral", "result": 0},
      {"measurement": "No. of −/− unrescued", "setting": "Raldh2-/- embryos; Dose 25 mg/kg oral", "result": 1},
      {"measurement": "Teratogenesis", "setting": "Raldh2-/- embryos; 2.5 mg/kg", "result": 0},
      {"measurement": "Teratogenesis", "setting": "Raldh2-/- embryos; 10 mg/kg", "result": 0},
      {"measurement": "Teratogenesis", "setting": "Raldh2-/- embryos; 25 mg/kg", "result": 0},
      {"measurement": "Growth inhibition of endothelial cells compared with A2780 and OVCAR-3", "setting": "[1]", "result": "much less growth inhibited"},
      {"measurement": "Survival", "setting": "B16 mouse melanoma", "result": "improved survival"},
      {"measurement": "Expression of TP at the RNA and protein levels", "setting": "[2]", "result": "inhibit expression"}
    ]}
  ]
}
